Experimental data: PMC9914633 (International Journal of Environmental Research and Public …, 2023)

Target: T1, xoSNAT1 (Xanthomonas oryzae, UniProt A0ACG7R854)
T1 construct: gene DZA53_20490
Details: serotonin 0.5 mM; acetyl-CoA 0.5 mM; 100 mM potassium phosphate pH 8.8; 35 °C

NCCc1c[nH]c2ccc(O)cc12 [serotonin]
LC-MS/MS of serotonin and product: GST and xoSNAT2 have no SNAT activity, while xoSNAT1 showed only low activity
